Measurements as given in EP2970215B1, “PYRROLIDINE DERIVATIVES, PHARMACEUTICAL COMPOSITIONS CONTAINING THEM, AND THEIR USE IN THERAPY” (AbbVie Deutschland GmbH & Co. KG, priority 2013, dated 2014).
pKi: −log10 of the molar value.

Molecular target: T1, human GlyT1c transporter (Homo sapiens, UniProt P48067)
T1 construct: expressed in transfected cells; host or cells: CHO cells (recombinant; line hGlyT1c_5_CHO is named for the uptake assay)
T1 sequence (P48067 1-706): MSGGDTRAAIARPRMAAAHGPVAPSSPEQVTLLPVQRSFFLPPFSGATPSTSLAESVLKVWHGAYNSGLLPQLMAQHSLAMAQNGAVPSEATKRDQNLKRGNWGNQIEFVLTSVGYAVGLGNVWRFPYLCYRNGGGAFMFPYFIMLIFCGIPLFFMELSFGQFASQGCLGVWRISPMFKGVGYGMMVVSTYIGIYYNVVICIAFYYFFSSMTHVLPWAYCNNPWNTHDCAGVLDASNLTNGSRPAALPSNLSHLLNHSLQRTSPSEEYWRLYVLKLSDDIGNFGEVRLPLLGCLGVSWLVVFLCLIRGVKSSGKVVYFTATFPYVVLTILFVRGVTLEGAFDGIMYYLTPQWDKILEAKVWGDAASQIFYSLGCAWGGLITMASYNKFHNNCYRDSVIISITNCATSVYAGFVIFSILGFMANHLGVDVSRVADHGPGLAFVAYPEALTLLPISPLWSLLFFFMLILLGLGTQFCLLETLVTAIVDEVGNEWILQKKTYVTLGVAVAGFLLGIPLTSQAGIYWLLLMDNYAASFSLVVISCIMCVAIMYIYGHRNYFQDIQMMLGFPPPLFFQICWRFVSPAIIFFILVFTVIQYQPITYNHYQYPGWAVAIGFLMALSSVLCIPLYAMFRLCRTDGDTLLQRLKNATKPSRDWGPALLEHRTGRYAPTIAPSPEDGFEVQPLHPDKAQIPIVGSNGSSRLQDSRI
Test: Radioligand binding assay using recombinant CHO cell membranes expressing human GlyT1
Settings: radioligand binding to human GlyT1c transporter-expressing membranes
Description: 2. Radioligand binding assays using recombinant CHO cell membranes expressing human GlyT1: […]

Molecule	pKi
Cn1cnc(S(=O)(=O)N2C[C@H](Nc3cc(OCC4CCNC4)ncn3)[C@@H](c3ccc(F)cc3)C2)c1 (stereo partly drawn) [Example 779, N-{(3R,4S)-4-(4-fluorophenyl)-1-[(1-methyl-1H-imidazol-4-yl)sulfonyl]pyrrolidin-3-yl}-6-(pyrrolidin-3-ylmethoxy)pyrimidin-4-amine]	≥ 5.00
Cn1cnc(S(=O)(=O)N2C[C@H](Nc3cc(OCC4CCCN4)ncn3)[C@@H](c3ccc(F)cc3)C2)c1 (stereo partly drawn) [Example 780, N-{(3R,4S)-4-(4-fluorophenyl)-1-[(1-methyl-1H-imidazol-4-yl)sulfonyl]pyrrolidin-3-yl}-6-(pyrrolidin-2-ylmethoxy)pyrimidin-4-amine]	≥ 5.00
Cn1cnc(S(=O)(=O)N2C[C@H](OCC(=O)NCC(F)F)[C@@H](c3ccc(F)cc3)C2)c1 [Example 797, N-(2,2-difluoroethyl)-2-({(3R,4S)-4-(4-fluorophenyl)-1-[(1-methyl-1H-imidazol-4-yl)sulfonyl]pyrrolidin-3-yl}oxy)acetamide]	≥ 5.00

Other lines, results leading:

pKi	Molecule
≥ 7.00	Cn1cnc(S(=O)(=O)N2C[C@H](Nc3nccc(C(F)(F)F)c3F)[C@@H](c3ccc(F)cc3)C2)c1 [Example 796, 3-fluoro-N-{(3R,4S)-4-(4-fluorophenyl)-1-[(1-methyl-1H-imidazol-4-yl)sulfonyl]pyrrolidin-3-yl}-4-(trifluoromethyl)pyridin-2-amine]
≥ 8.00	Cn1cnc(S(=O)(=O)N2C[C@H](Nc3cccc(-c4ccccn4)c3)[C@@H](c3ccc(F)cc3)C2)c1 [Example 801, (3R,4S)-4-(4-fluorophenyl)-1-[(1-methyl-1H-imidazol-4-yl)sulfonyl]-N-[3-(pyridin-2-yl)phenyl]pyrrolidin-3-amine]
≥ 7.00	Cn1cnc(S(=O)(=O)N2C[C@H](Nc3cccc(-c4ccccn4)c3)[C@@H](c3ccccc3)C2)c1 [Example 802, (3R,4S)-1-[(1-methyl-1H-imidazol-4-yl)sulfonyl]-4-phenyl-N-[3-(pyridin-2-yl)phenyl]pyrrolidin-3-amine]
≥ 8.00	Cn1cnc(S(=O)(=O)N2C[C@H](Nc3cc(OCC(F)(F)F)c(F)cn3)[C@@H](c3ccccc3)C2)c1 [Example 803, 5-fluoro-N-{(3R,4S)-1-[(1-methyl-1H-imidazol-4-yl)sulfonyl]-4-phenylpyrrolidin-3-yl}-4-(2,2,2-trifluoroethoxy)pyridin-2-amine]
≥ 8.00	Cn1cnc(S(=O)(=O)N2C[C@H](Nc3cc(OCC(F)(F)F)c(Cl)cn3)[C@@H](c3ccc(F)cc3)C2)c1 [Example 806, 5-chloro-N-{(3R,4S)-4-(4-fluorophenyl)-1-[(1-methyl-1H-imidazol-4-yl)sulfonyl]pyrrolidin-3-yl}-4-(2,2,2-trifluoroethoxy)pyridin-2-amine]
≥ 8.00	Cn1cnc(S(=O)(=O)N2C[C@H](Nc3cc(OCC(F)(F)F)ccn3)[C@@H](c3ccc(F)cc3)C2)c1 [Example 807, N-{(3R,4S)-4-(4-fluorophenyl)-1-[(1-methyl-1H-imidazol-4-yl)sulfonyl]pyrrolidin-3-yl}-4-(2,2,2-trifluoroethoxy)pyridin-2-amine]
≥ 8.00	Cn1cnc(S(=O)(=O)N2C[C@H](Nc3cc(OCC(F)(F)F)c(F)cn3)[C@@H](c3ccc(F)cc3)C2)c1 [Example 810, 5-fluoro-N-{(3R,4S)-4-(4-fluorophenyl)-1-[(1-methyl-1H-imidazol-4-yl)sulfonyl]pyrrolidin-3-yl}-4-(2,2,2-trifluoroethoxy)pyridin-2-amine]

Same assay, conditions: radioligand binding, recombinant CHO cell membranes expressing human GlyT1c

Molecule	pKi
CCCCCCNC1CN(S(=O)(=O)c2cn(C)cn2)CC1[C@H]1CCCO1 (stereo partly drawn) [Example 820, N-Hexyl-1-[(1-methyl-1H-imidazol-4-yl)sulfonyl]-4-[(2R)-tetrahydrofuran-2-yl]pyrrolidin-3-amine]	≥ 5.00
CCCCCCNC1CN(S(=O)(=O)c2cn(C)cn2)CC1[C@@H]1CCCO1 (stereo partly drawn) [Example 821, N-hexyl-1-[(1-methyl-1H-imidazol-4-yl)sulfonyl]-4-[(2S)-tetrahydrofuran-2-yl]pyrrolidin-3-amine]	≥ 5.00
Cn1cnc(S(=O)(=O)N2CC(Nc3ccc(F)c(Cl)c3)C([C@@H]3CCCO3)C2)c1 (stereo partly drawn) [Example 825, N-(3-chloro-4-fluorophenyl)-1-[(1-methyl-1H-imidazol-4-yl)sulfonyl]-4-[(2S)-tetrahydrofuran-2-yl]pyrrolidin-3-amine]	≥ 6.00
Cn1cnc(S(=O)(=O)N2C[C@H](Nc3ccc4c(c3)N(Cc3ccccc3)CC4)[C@@H](c3ccccc3)C2)c1 [Example 826, 1-benzyl-N-{(3R,4S)-1-[(1-methyl-1H-imidazol-4-yl)sulfonyl]-4-phenylpyrrolidin-3-yl}-2,3-dihydro-1H-indol-6-amine]	≥ 5.00
Cn1cc(S(=O)(=O)N2C[C@H](Nc3cccc(OC(F)(F)F)c3)[C@@H](c3ccc(F)cc3)C2)nn1 [Example 837, (3R,4S)-4-(4-fluorophenyl)-1-[(1-methyl-1H-1,2,3-triazol-4-yl)sulfonyl]-N-[3-(trifluoromethoxy)phenyl]pyrrolidin-3-amine]	≥ 8.00
Cn1cc(S(=O)(=O)N2C[C@H](Nc3ccc(F)c(Cl)c3)[C@@H](c3ccc(F)cc3)C2)nn1 [Example 842, (3R,4S)-N-(3-chloro-4-fluorophenyl)-4-(4-fluorophenyl)-1-[(1-methyl-1H-1,2,3-triazol-4-yl)sulfonyl]pyrrolidin-3-amine]	≥ 8.00
(3R,4S)-4-(1,3-dioxan-2-yl)-N,N-dihexyl-1-[(1-methyl-1H-imidazol-4-yl)sulfonyl]pyrrolidin-3-amine [Example 909]	≥ 6.00

Further lines, results first:

pKi	Molecule
≥ 7.00	CC(C)c1ccnc(N[C@H]2CN(S(=O)(=O)c3cn(C)cn3)C[C@@H]2c2ccccc2)c1 [Example 813, N-{(3R,4S)-1-[(1-methyl-1H-imidazol-4-yl)sulfonyl]-4-phenylpyrrolidin-3-yl}-4-(propan-2-yl)pyridin-2-amine]
≥ 6.00	Cn1cnc(S(=O)(=O)N2CC(Cc3cc(C(F)(F)F)ccn3)C(c3ccccc3)C2)c1 (stereo not shown) [Example 817, 2-({1-[(1-methyl-1H-imidazol-4-yl)sulfonyl]-4-phenylpyrrolidin-3-yl}methyl)-4-(trifluoromethyl)pyridine]
≥ 8.00	Cn1cc(S(=O)(=O)N2C[C@H](Nc3cccc(C(F)(F)F)c3)[C@@H](c3ccc(F)cc3)C2)nn1 [Example 839, (3R,4S)-4-(4-fluorophenyl)-1-[(1-methyl-1H-1,2,3-triazol-4-yl)sulfonyl]-N-[3-(trifluoromethyl)phenyl]pyrrolidin-3-amine]
≥ 8.00	Cn1cnc(S(=O)(=O)N2C[C@H](Nc3cc(C(F)(F)F)c(F)cn3)[C@@H](c3ccc(F)cc3)C2)c1 [Example 865, 5-fluoro-N-{(3R,4S)-4-(4-fluorophenyl)-1-[(1-methyl-1H-imidazol-4-yl)sulfonyl]pyrrolidin-3-yl}-4-(trifluoromethyl)pyridin-2-amine]
≥ 7.00	Cn1cnc(S(=O)(=O)N2CC3c4ccccc4CCC3(NCc3ccc(C(F)(F)F)cc3Cl)C2)c1 (stereo not shown) [Example 890, N-[2-chloro-4-(trifluoromethyl)benzyl]-2-[(1-methyl-1H-imidazol-4-yl)sulfonyl]-1,2,3,4,5,9b-hexahydro-3aH-benzo[e]isoindol-3a-amine]
